No end group written: not given here.
Experiments:
E. cloacae β-12 = test: Liquid growth inhibition assay, MIC; format: cell-based, Enterobacter cloacae; conditions: 37° C., 18 h
Procedure: (§1) Initially, the antimicrobial activity was determined by liquid growth inhibition assays, as previously described by Pedron et al.^62. Briefly, Peptone Broth and Potato Dextrose Broth (Invitrogen) were used for antibacterial and antifungal assays, respectively. Two-fold serial dilutions of peptides (0.09-50 μmol L^−1) and microorganisms (Serratia marcescens ATCC 4112, Enterobacter cloacae β-12, Micrococcus luteus A270, Bacillus megaterium ATCC 10778, Bacillus subtilis ATCC 6633, Candida albicans MDM8, and Candida tropicalis IOC 4560) were incubated at 37° C. for 18 h (for bacteria) or 24 h (for fungi), and microbial growth was assessed by absorbance measurements at 595 nm. Experiments were performed in three biological repeats.

M. luteus A270 = test: Liquid growth inhibition assay, MIC; format: cell-based, Micrococcus luteus; conditions: 37° C., 18 h
Procedure: as §1

C. tropicalis IOC 4560 = test: Liquid growth inhibition assay, MIC (antifungal); format: cell-based, Candida tropicalis; conditions: 37° C., 24 h
Procedure: as §1

C. albicans MDM8 = test: Liquid growth inhibition assay, MIC (antifungal); format: cell-based, Candida albicans; conditions: 37° C., 24 h
Procedure: as §1

[1] = Circular dichroism, helical fraction (Lifson-Roig); format: physicochemical; conditions: peptide 50 μmol L^−1; for Helical fraction (fH) PBS: PBS 10 mmol L^−1, pH 7.4; for Helical fraction (fH) POPC: POPC 10 mmol L^−1; for Helical fraction (fH) POPC:DOPE: POPC:DOPE 3:1, mol:mol; for Helical fraction (fH) POPC:DOPE / Helical fraction (fH) POPC:POPG: 10 mmol L^−1; for Helical fraction (fH) POPC:POPG: POPC:POPG 3:1, mol:mol; for Helical fraction (fH) SDS: SDS 20 mmol L^−1 in water; for Helical fraction (fH) TFE/Water: TFE in water (3:2, v:v)
Procedure: Method. Circular dichroism (CD) assays were performed with a Spectropolarimeter Jasco Mod. J-815 (JascoCorp). CD spectra were obtained in Far-UV (195-260 nm), and analyzed in the following solutions: water, 2,2,2-trifluoroethanol (TFE) in water (3:2, v:v), phosphate buffer saline (PBS, 10 mmol L^−1, pH 7.4), sodium dodecyl sulfate (SDS 20 mmol L^−1) in water, palmitoyloleoylphosphatidylcholine (POPC; 10 mmol L^−1), palmitoyloleoylphosphatidylcholine:dioleylphosphatidylethanolamine (POPC:DOPE; 3:1, mol:mol, 10 mmol L^−1) and palmitoyloleoylphosphatidylcholine:palmitoyloleoylphosphatidylglycerol (POPC:POPG; 3:1, mol:mol, 10 mmol L^−1) at a peptide concentration of 50 μmol L^−1. These experiments were performed as described in detail by Pedron et al.^62.

B. megaterium ATCC 10778 = test: Liquid growth inhibition assay, MIC; format: cell-based, Bacillus megaterium; conditions: 37° C., 18 h
Procedure: as §1

S. marcescens ATCC 4112 = test: Liquid growth inhibition assay, MIC; format: cell-based, Serratia marcescens; conditions: 37° C., 18 h
Procedure: as §1

[2] = test system: S. epidermidis ATCC 12228; test: Liquid growth inhibition assay, MIC; format: cell-based; conditions: 37° C., 18 h
[3] = test system: Plasmodium gallinaceum sporozoites; test: Antiplasmodial activity, fluorescence microscopy; format: cell-based; conditions: for P. gallinaceum (% sporozoites at 0.8 μmol L^−1): fluorescent (propidium iodide stained) sporozoites, 37° C., 1 h; for antiplasmodial activity: P. gallinaceum sporozoites, concentration range tested
Procedure: Method. The activity of the peptides against Plasmodium gallinaceum sporozoites was determined by fluorescence microscopy, as previously described by Silva et. al.^83. Briefly, 9,000 sporozoites were isolated from the glands of infected Aedes aegypti mosquitos and incubated with serially diluted peptides (ranging from 0.1 to 1.6 μmol L^−1) at 37° C. for 1 h. A PBS solution and the surfactant digitonin^84, 85 were used as negative and positive controls, respectively. Propidium iodide was used to stain dead cells. Assays were executed using fluorescence microscopy. Three biological repeats each with three different mosquito batches (n=9) were used.

human erythrocytes = test: Hemolytic activity assay; format: cell-based; conditions: human erythrocytes, 1 h; for MHC: room temperature, concentration with approximately 0% of hemolytic activity
Procedure: Method. Assays against freshly collected human erythrocytes were performed following protocols described by Pedron et al. 62. Briefly, peptide aliquots at concentrations ranging from 0.1 to 100 μmol L−1 were incubated with a suspension of erythrocytes at room temperature for 1 h. The samples were then centrifuged, and the absorbance of the supernatant was measured at 405 nm. The MHC (maximal non-hemolytic concentration) was determined as the maximal concentration at which 100% of the erythrocytes were viable. The surfactant SDS and PBS buffer were used as positive88, 89 and negative controls, respectively. Sodium heparin was used as an anticoagulant when collecting human blood. Three biological repeats were performed.

P. aeruginosa PA14 = test: Broth microdilution MIC, ESKAPE pathogens; format: cell-based; conditions: LB, 37° C., 24 h
Procedure: (§2) Method. The minimal inhibitory concentration (MIC) against the ESKAPE pathogens was determined using the broth microdilution method^81, 82 in Luria-Bertani (LB) medium. The MIC value was defined as the lowest concentration of peptide at which no microbial growth was observed. A. baumannii ATCC19606, E. coli ATCC11775, E. coli AIC221, E. coli AIC222, K. pneumoniae ATCC13883, S. aureus ATCC12600 P. aeruginosa PAO1, and P. aeruginosa PA14 were incubated on agar plates, and after 24 h, three isolated colonies were inoculated to 5 mL of Luria-Bertani (LB) broth and maintained at 37° C. overnight with shaking. Peptides were then added to 96-well polystyrene microtiter plates at concentrations ranging from 0 to 128 μmol L^−1, and 5×10^5 CFU mL^−1 of each bacterium was inoculated in each well. The plates were incubated at 37° C. for 24 h. Bacterial growth was measured using a microplate reader at 610 nm. Three independent replicates were performed.

E. coli AIC221 = test: Broth microdilution MIC, ESKAPE pathogens; format: cell-based; conditions: LB, 37° C., 24 h
Procedure: as §2

A. baumannii ATCC19606 = test: Broth microdilution MIC, ESKAPE pathogens; format: cell-based; conditions: LB, 37° C., 24 h
Procedure: as §2

S. aureus ATCC12600 = test: Broth microdilution MIC, ESKAPE pathogens; format: cell-based; conditions: LB, 37° C., 24 h
Procedure: as §2

E. coli ATCC11775 = test: Broth microdilution MIC, ESKAPE pathogens; format: cell-based; conditions: LB, 37° C., 24 h
Procedure: as §2

P. aeruginosa PAO1 = test: Broth microdilution MIC, ESKAPE pathogens; format: cell-based; conditions: LB, 37° C., 24 h
Procedure: as §2

E. coli AIC222 = test: Broth microdilution MIC, ESKAPE pathogens; format: cell-based; conditions: LB, 37° C., 24 h
Procedure: as §2

K. pneumoniae ATCC13883 = test: Broth microdilution MIC, ESKAPE pathogens; format: cell-based; conditions: LB, 37° C., 24 h
Procedure: as §2

Row | Substance | MIC E. cloacae β-12 (E. cloacae β-12) | MIC M. luteus A270 (M. luteus A270) | MIC C. tropicalis IOC 4560 (C. tropicalis IOC 4560) | MIC C. albicans MDM8 (C. albicans MDM8) | Helical fraction (fH) PBS [1] | Helical fraction (fH) POPC [1] | Helical fraction (fH) POPC:DOPE [1] | Helical fraction (fH) POPC:POPG [1] | Helical fraction (fH) SDS [1] | Helical fraction (fH) TFE/Water [1] | Helical fraction (fH) Water [1] | MIC B. megaterium ATCC 10778 (B. megaterium ATCC 10778) | MIC S. marcescens ATCC 4112 (S. marcescens ATCC 4112) | MIC S. epidermidis ATCC 12228 [2] | P. gallinaceum (% sporozoites at 0.8 μmol L^−1) [3] | MHC (human erythrocytes) | MIC P. aeruginosa PA14 (P. aeruginosa PA14) | MIC E. coli AIC221 (E. coli AIC221) | MIC A. baumannii ATCC19606 (A. baumannii ATCC19606) | MIC S. aureus ATCC12600 (S. aureus ATCC12600) | also measured
1 | FLGAIGNVLKSIL-NH2 [TV, Phe-Leu-Gly-Ala-Ile-Gly-Asn-Val-Leu-Lys-Ser-Ile-Leu] | >50 µM | 6.3 µM | 3.1 µM | 25 µM | 0.04 | 0.12 | 0.35 | 0.06 | 0.28 | 0.50 | 0.04 | 6.3 µM | 6.3 µM | >50 µM | 83% | 0.2 µmol/L | 128 µM | 16 µM | 16 µM | 16 µM | antiplasmodial activity [3]: exhibited antiplasmodial activity; Hemolytic activity, concentration of peptide needed to kill 10% of red blood cells (human erythrocytes): 0.2 µmol/L; MIC E. coli ATCC11775 (E. coli ATCC11775): 32 µM; MIC P. aeruginosa PAO1 (P. aeruginosa PAO1): 128 µM; MIC E. coli AIC222 (E. coli AIC222): 8 µM; MIC K. pneumoniae ATCC13883 (K. pneumoniae ATCC13883): 16 µM
2 | FLPLLWRVASGVF-NH2 [VT, Phe-Leu-Pro-Leu-Leu-Trp-Arg-Val-Ala-Ser-Gly-Val-Phe] | >50 µM | 3.1 µM | 25 µM | 12.5 µM | 0.18 | 0.45 | 0.42 | 1.00 | 0.82 | 1.00 | 0.21 | 6.3 µM | 12.5 µM | >50 µM | 2% | 0.2 µmol/L | 128 µM | 128 µM | 16 µM | 4 µM | antiplasmodial activity [3]: did not exhibit significant antiplasmodial activity; Hemolytic activity, concentration of peptide needed to kill 10% of red blood cells (human erythrocytes): 0.2 µmol/L; MIC E. coli ATCC11775 (E. coli ATCC11775): 64 µM; MIC P. aeruginosa PAO1 (P. aeruginosa PAO1): 128 µM; MIC E. coli AIC222 (E. coli AIC222): 32 µM; MIC K. pneumoniae ATCC13883 (K. pneumoniae ATCC13883): 128 µM
3 | FLGALWNVAKSVF-NH2 [VmCT1, Phe-Leu-Gly-Ala-Len-Trp-Asu-Val-Ala-Lys-Ser-Val-Phe, reference compound] | >50 µM | 0.8 µM | 12.5 µM | 12.5 µM | 0.03 | 0.42 | 0.55 | 0.25 | 0.17 | 0.30 | 0.05 | 1.6 µM | 0.4 µM | 3.1 µM | 93% | 6.3 µmol/L | 128 µM | 32 µM | 8 µM | 8 µM | MIC E. coli ATCC11775 (E. coli ATCC11775): 16 µM; MIC P. aeruginosa PAO1 (P. aeruginosa PAO1): 128 µM; MIC E. coli AIC222 (E. coli AIC222): 16 µM; MIC K. pneumoniae ATCC13883 (K. pneumoniae ATCC13883): 64 µM
4 | ILGAILNVLKSLG-NH2 [PV, Ile-Leu-Gly-Ala-Ile-Leu-Asn-Val-Leu-Lys-Ser-Leu-Gly] | >50 µM | 3.1 µM | 6.3 µM | 12.5 µM | 0.08 | 0.44 | 0.28 | 0.63 | 0.60 | 0.68 | 0.13 | 12.5 µM | 12.5 µM | >50 µM | 41% | 25 µmol/L | 128 µM | 32 µM | 32 µM | 16 µM | Hemolytic activity, concentration of peptide needed to kill 10% of red blood cells (human erythrocytes): 25 µmol/L; MIC E. coli ATCC11775 (E. coli ATCC11775): 32 µM; MIC E. coli AIC222 (E. coli AIC222): 16 µM; MIC K. pneumoniae ATCC13883 (K. pneumoniae ATCC13883): 64 µM

From US20260250337A1, “HYBRID ANTIMICROBIAL PEPTIDES” (UNIVERSIDADE FEDERAL DO ABC, priority 2023, published 2026)
